Source: patent US6900351B2, “Aminopolycarboxylates, process for producing the same and use thereof” (Tosoh Corporation, priority 2000, dated 2005)

Assay: Chelatability (constant of calcium ion stability) test with calcium ion electrode
Format: physicochemical
Details: 25° C., pH 10, 1 mmol/l chelating agent with equivalent 1 mmol/l calcium chloride
Procedure: To 1 mmol/l aqueous solution of this sodium aminopolycarboxylate, an equivalent amount of a 1 mmol/l aqueous solution of calcium chloride was added. Then the constant of calcium ion stability (pKCa^2+) was determined by measuring the calcium ion concentration at pH 10.0 by using a calcium ion electrode.
(1) Formation of Calibration Curve
By using calcium chloride, solutions having calcium concentrations of 0.1 mmol/l, 1.0 mmol/l and 10 mmol/l were prepared and the potential of each solution was measured. Based on the data thus obtained, a calibration curve of the logarithmic calcium ion concentration vs. potential was formed.
(2) Measurement of Constant of Stability
An aqueous solution (100 ml) was prepared by adding a chelating agent (1 mmol/l) and calcium chloride (1 mmol/l) at an equivalent ratio to an aqueous solution containing 0.1 mmol/l of ammonium chloride to achieve a constant ionic strength. After stirring this solution for 10 minutes, the potential of the solution at 25° C. at pH 10 was measured. Based on the calibration curve formed in (1), the calcium ion concentration corresponding to the potential thus measured was determined and the constant of stability was calculated on the assumption that the sample and calcium ion formed a complex at a ratio of 1:1.

O=C([O-])CC(NCCNC(CC(=O)[O-])C(=O)O)C(=O)[O-].[Na+].[Na+].[Na+] (stereo not shown) [trisodium N,N′-ethylenediaminedisuccinate, reference compound]
constant of calcium ion stability (pKCa2+): 3.8
